From ChEMBL document CHEMBL5385961, “In vitro and in vivo evaluation of novel chromeno[2,3-d]pyrimidinones as therapeutic agents for triple negative breast cancer” (RSC Med Chem, 2024)
Calls of active or inactive are those of the source. The rule behind the calls is not given here.

system: Hs-578T; assay: Cytotoxicity against human Hs-578T cells assessed as inhibition of cell growth incubated for 72 hrs by SRB assay; type: functional, cell-based; conditions: not given

With `COc1cccc(-c2nc3c(c(=O)[nH]2)Cc2cc(Cl)ccc2O3)c1` as the compound, how does the IC50 read?
The IC50 was 13.1 µM.

For `O=c1c(O)c(-c2ccc(O)c(O)c2)oc2cc(O)cc(O)c12` [QUERCETIN], which IC50 is on record?
Its IC50 is 50.5 µM.

system: not listed separately; assay: Cytotoxicity against human MCF-10A cells assessed as inhibition of cell growth incubated for 72 hrs by SRB assay; type: toxicity, cell-based; conditions: not given

Which IC50 at 72 h does the source give for `COc1cccc(-c2nc3c(c(=O)[nH]2)Cc2cc(Cl)ccc2O3)c1` here?
The IC50 at 72 h was 14 µM.

With `O=c1c(O)c(-c2ccc(O)c(O)c2)oc2cc(O)cc(O)c12` [QUERCETIN] as the compound, how does the IC50 at 72 h read?
Its IC50 at 72 h is 9.32 µM.

species: Homo sapiens; assay: Selectivity index, ratio of IC50 for human MCF-10A cells to IC50 for human Hs-578T cells; conditions: not given

Which Ratio IC50 does the source give for `COc1cccc(-c2nc3c(c(=O)[nH]2)Cc2cc(Cl)ccc2O3)c1` here?
The Ratio IC50 was 0.06.

Which Ratio IC50 does the source give for `O=c1c(O)c(-c2ccc(O)c(O)c2)oc2cc(O)cc(O)c12` [QUERCETIN] here?
Its Ratio IC50 is 0.82.

system: Hs-578T; assay: Induction of apoptosis in human Hs-578T cells assessed as increase in caspase-8 protein expression at IC50 measured after 24 hrs by Western blot analysis; type: functional, cell-based; conditions: not given

With `COc1cccc(-c2nc3c(c(=O)[nH]2)Cc2cc(Cl)ccc2O3)c1` as the compound, how does the Activity read?
The Activity was “Active”.

system: Hs-578T; assay: Induction of apoptosis in human Hs-578T cells assessed as increase in caspase-8 protein expression at IC50 measured after 48 hrs by Western blot analysis; type: functional, cell-based; conditions: not given

For `COc1cccc(-c2nc3c(c(=O)[nH]2)Cc2cc(Cl)ccc2O3)c1`, which Activity is on record?
The Activity was “inactive”.

system: Hs-578T; assay: Induction of apoptosis in human Hs-578T cells assessed as increase in caspase-9 protein expression at IC50 measured after 24 to 48 hrs by Western blot analysis; type: functional, cell-based; conditions: time 24-48 hrs

For `COc1cccc(-c2nc3c(c(=O)[nH]2)Cc2cc(Cl)ccc2O3)c1`, which Activity is on record?
Its Activity is “Active”.

system: Hs-578T; assay: Induction of apoptosis in human Hs-578T cells assessed as increase in BID protein expression at IC50 measured after 24 to 48 hrs by Western blot analysis; type: functional, cell-based; conditions: time 24-48 hrs

With `COc1cccc(-c2nc3c(c(=O)[nH]2)Cc2cc(Cl)ccc2O3)c1` as the compound, how does the Activity read?
Its Activity is “Active”.

system: Hs-578T; assay: Induction of apoptosis in human Hs-578T cells assessed as increase in BAD protein expression at IC50 measured after 24 to 48 hrs by Western blot analysis; type: functional, cell-based; conditions: time 24-48 hrs

Which Activity does the source give for `COc1cccc(-c2nc3c(c(=O)[nH]2)Cc2cc(Cl)ccc2O3)c1` here?
Its Activity is “Active”.

system: Hs-578T; assay: Cytotoxicity against human Hs-578T cells assessed as cell viability at 10 uM incubated for 72 hrs by SRB assay relative to control; type: functional; conditions: read-out: Activity

Which viability at 10 µM does the source give for `N#CC1=C(/N=C/Nc2ccccc2)Oc2ccc(Br)cc2C1CC(=O)c1ccccc1` (centres undefined) here?
The viability at 10 µM was 96.1%.

Which viability at 10 µM does the source give for `COc1ccc2c(c1)Cc1c(nc(-c3cc(OC)ccc3OC)[nH]c1=O)O2` here?
Its viability at 10 µM is 95.9%.

For `COc1ccc2c(c1)C=C1C(=O)NC(c3c(OC)cc(OC)cc3OC)N=C1O2` (centres undefined), which viability at 10 µM is on record?
Its viability at 10 µM is 97%.

With `COc1cccc2c1Oc1nc(-c3ccc(C)cc3)[nH]c(=O)c1C2` as the compound, how does the viability at 10 µM read?
The viability at 10 µM was 86.8%.

For `CC(C)(C)c1cc(-c2nc3c(c(=O)[nH]2)Cc2ccccc2O3)cc(C(C)(C)C)c1O`, which viability at 10 µM is on record?
The viability at 10 µM was 80.2%.

Which viability at 10 µM does the source give for `CCC(CC)C1N=C2Oc3c(cccc3OC)C=C2C(=O)N1` (centres undefined) here?
The viability at 10 µM was 98.4%.

For `COc1cccc(-c2nc3c(c(=O)[nH]2)Cc2cc(Cl)ccc2O3)c1`, which viability at 10 µM is on record?
Its viability at 10 µM is 54.7%.

system: Hs-578T; assay: Cytotoxicity against human Hs-578T cells assessed as cell viability at 30 uM incubated for 72 hrs by SRB assay relative to control; type: functional; conditions: read-out: Activity

With `N#CC1=C(/N=C/Nc2ccccc2)Oc2ccc(Br)cc2C1CC(=O)c1ccccc1` (centres undefined) as the compound, how does the viability at 30 µM read?
Its viability at 30 µM is 89.9%.

For `COc1ccc2c(c1)Cc1c(nc(-c3cc(OC)ccc3OC)[nH]c1=O)O2`, which viability at 30 µM is on record?
Its viability at 30 µM is 96.5%.

Which viability at 30 µM does the source give for `COc1ccc2c(c1)C=C1C(=O)NC(c3c(OC)cc(OC)cc3OC)N=C1O2` (centres undefined) here?
The viability at 30 µM was 65.5%.

Which viability at 30 µM does the source give for `COc1cccc2c1Oc1nc(-c3ccc(C)cc3)[nH]c(=O)c1C2` here?
The viability at 30 µM was 63.3%.

With `CC(C)(C)c1cc(-c2nc3c(c(=O)[nH]2)Cc2ccccc2O3)cc(C(C)(C)C)c1O` as the compound, how does the viability at 30 µM read?
Its viability at 30 µM is 81%.

With `CCC(CC)C1N=C2Oc3c(cccc3OC)C=C2C(=O)N1` (centres undefined) as the compound, how does the viability at 30 µM read?
Its viability at 30 µM is 83%.

With `COc1cccc(-c2nc3c(c(=O)[nH]2)Cc2cc(Cl)ccc2O3)c1` as the compound, how does the viability at 30 µM read?
The viability at 30 µM was 33.9%.

system: MDA-MB-231; assay: Cytotoxicity against human MDA-MB-231 cells assessed as cell viability at 10 uM incubated for 72 hrs by SRB assay relative to control; type: functional; conditions: read-out: Activity

For `N#CC1=C(/N=C/Nc2ccccc2)Oc2ccc(Br)cc2C1CC(=O)c1ccccc1` (centres undefined), which viability at 10 µM is on record?
The viability at 10 µM was 98%.

For `COc1ccc2c(c1)Cc1c(nc(-c3cc(OC)ccc3OC)[nH]c1=O)O2`, which viability at 10 µM is on record?
Its viability at 10 µM is 60.9%.

With `COc1ccc2c(c1)C=C1C(=O)NC(c3c(OC)cc(OC)cc3OC)N=C1O2` (centres undefined) as the compound, how does the viability at 10 µM read?
Its viability at 10 µM is 86.3%.

Which viability at 10 µM does the source give for `COc1cccc2c1Oc1nc(-c3ccc(C)cc3)[nH]c(=O)c1C2` here?
Its viability at 10 µM is 99.2%.

With `CC(C)(C)c1cc(-c2nc3c(c(=O)[nH]2)Cc2ccccc2O3)cc(C(C)(C)C)c1O` as the compound, how does the viability at 10 µM read?
Its viability at 10 µM is 95.1%.

For `CCC(CC)C1N=C2Oc3c(cccc3OC)C=C2C(=O)N1` (centres undefined), which viability at 10 µM is on record?
The viability at 10 µM was 85.8%.

With `COc1cccc(-c2nc3c(c(=O)[nH]2)Cc2cc(Cl)ccc2O3)c1` as the compound, how does the viability at 10 µM read?
The viability at 10 µM was 85.1%.

system: MDA-MB-231; assay: Cytotoxicity against human MDA-MB-231 cells assessed as cell viability at 30 uM incubated for 72 hrs by SRB assay relative to control; type: functional; conditions: read-out: Activity

Which viability at 30 µM does the source give for `N#CC1=C(/N=C/Nc2ccccc2)Oc2ccc(Br)cc2C1CC(=O)c1ccccc1` (centres undefined) here?
The viability at 30 µM was 96%.

With `COc1ccc2c(c1)Cc1c(nc(-c3cc(OC)ccc3OC)[nH]c1=O)O2` as the compound, how does the viability at 30 µM read?
Its viability at 30 µM is 49.7%.

For `COc1ccc2c(c1)C=C1C(=O)NC(c3c(OC)cc(OC)cc3OC)N=C1O2` (centres undefined), which viability at 30 µM is on record?
Its viability at 30 µM is 78.5%.

Which viability at 30 µM does the source give for `COc1cccc2c1Oc1nc(-c3ccc(C)cc3)[nH]c(=O)c1C2` here?
The viability at 30 µM was 91.1%.

For `CC(C)(C)c1cc(-c2nc3c(c(=O)[nH]2)Cc2ccccc2O3)cc(C(C)(C)C)c1O`, which viability at 30 µM is on record?
The viability at 30 µM was 95.2%.

With `CCC(CC)C1N=C2Oc3c(cccc3OC)C=C2C(=O)N1` (centres undefined) as the compound, how does the viability at 30 µM read?
Its viability at 30 µM is 64.1%.

With `COc1cccc(-c2nc3c(c(=O)[nH]2)Cc2cc(Cl)ccc2O3)c1` as the compound, how does the viability at 30 µM read?
The viability at 30 µM was 18.4%.

system: MCF7; assay: Cytotoxicity against human MCF7 cells assessed as cell viability at 10 uM incubated for 72 hrs by SRB assay relative to control; type: functional; conditions: read-out: Activity

With `N#CC1=C(/N=C/Nc2ccccc2)Oc2ccc(Br)cc2C1CC(=O)c1ccccc1` (centres undefined) as the compound, how does the viability at 10 µM read?
The viability at 10 µM was 74.6%.

With `COc1ccc2c(c1)Cc1c(nc(-c3cc(OC)ccc3OC)[nH]c1=O)O2` as the compound, how does the viability at 10 µM read?
The viability at 10 µM was 63.7%.

With `COc1ccc2c(c1)C=C1C(=O)NC(c3c(OC)cc(OC)cc3OC)N=C1O2` (centres undefined) as the compound, how does the viability at 10 µM read?
The viability at 10 µM was 101%.

Which viability at 10 µM does the source give for `COc1cccc2c1Oc1nc(-c3ccc(C)cc3)[nH]c(=O)c1C2` here?
Its viability at 10 µM is 78.5%.

For `CC(C)(C)c1cc(-c2nc3c(c(=O)[nH]2)Cc2ccccc2O3)cc(C(C)(C)C)c1O`, which viability at 10 µM is on record?
The viability at 10 µM was 97.7%.

Which viability at 10 µM does the source give for `CCC(CC)C1N=C2Oc3c(cccc3OC)C=C2C(=O)N1` (centres undefined) here?
The viability at 10 µM was 85.9%.

With `COc1cccc(-c2nc3c(c(=O)[nH]2)Cc2cc(Cl)ccc2O3)c1` as the compound, how does the viability at 10 µM read?
Its viability at 10 µM is 81.5%.

system: MCF7; assay: Cytotoxicity against human MCF7 cells assessed as cell viability at 30 uM incubated for 72 hrs by SRB assay relative to control; type: functional; conditions: read-out: Activity

Which viability at 30 µM does the source give for `N#CC1=C(/N=C/Nc2ccccc2)Oc2ccc(Br)cc2C1CC(=O)c1ccccc1` (centres undefined) here?
Its viability at 30 µM is 37.9%.

Which viability at 30 µM does the source give for `COc1ccc2c(c1)Cc1c(nc(-c3cc(OC)ccc3OC)[nH]c1=O)O2` here?
Its viability at 30 µM is 57.8%.

For `COc1ccc2c(c1)C=C1C(=O)NC(c3c(OC)cc(OC)cc3OC)N=C1O2` (centres undefined), which viability at 30 µM is on record?
Its viability at 30 µM is 100%.

With `COc1cccc2c1Oc1nc(-c3ccc(C)cc3)[nH]c(=O)c1C2` as the compound, how does the viability at 30 µM read?
Its viability at 30 µM is 77.2%.

With `CC(C)(C)c1cc(-c2nc3c(c(=O)[nH]2)Cc2ccccc2O3)cc(C(C)(C)C)c1O` as the compound, how does the viability at 30 µM read?
The viability at 30 µM was 94.7%.

For `CCC(CC)C1N=C2Oc3c(cccc3OC)C=C2C(=O)N1` (centres undefined), which viability at 30 µM is on record?
The viability at 30 µM was 84.8%.

Which viability at 30 µM does the source give for `COc1cccc(-c2nc3c(c(=O)[nH]2)Cc2cc(Cl)ccc2O3)c1` here?
Its viability at 30 µM is 35.4%.

system: Hs-578T; assay: Cytotoxicity against human Hs-578T cells assessed as reduction in cell viability at 10 uM incubated for 72 hrs by SRB assay relative to control; type: functional; conditions: not given

For `COc1cccc(-c2nc3c(c(=O)[nH]2)Cc2cc(Cl)ccc2O3)c1`, which Activity is on record?
The Activity was ~50%.
